From article PMC4554294 (Biochemistry and Biophysics Reports, 2015)

Experiments:
Assay in all cases: saturation transfer difference
Assay type in all cases: binding
[1] = molecular target: T1, sucrose phosphorylase (LmSPase) (Leuconostoc mesenteroides, UniProt Q59495, F52A/E237A)
T1 sequence (Q59495 1-490 F52A/E237A): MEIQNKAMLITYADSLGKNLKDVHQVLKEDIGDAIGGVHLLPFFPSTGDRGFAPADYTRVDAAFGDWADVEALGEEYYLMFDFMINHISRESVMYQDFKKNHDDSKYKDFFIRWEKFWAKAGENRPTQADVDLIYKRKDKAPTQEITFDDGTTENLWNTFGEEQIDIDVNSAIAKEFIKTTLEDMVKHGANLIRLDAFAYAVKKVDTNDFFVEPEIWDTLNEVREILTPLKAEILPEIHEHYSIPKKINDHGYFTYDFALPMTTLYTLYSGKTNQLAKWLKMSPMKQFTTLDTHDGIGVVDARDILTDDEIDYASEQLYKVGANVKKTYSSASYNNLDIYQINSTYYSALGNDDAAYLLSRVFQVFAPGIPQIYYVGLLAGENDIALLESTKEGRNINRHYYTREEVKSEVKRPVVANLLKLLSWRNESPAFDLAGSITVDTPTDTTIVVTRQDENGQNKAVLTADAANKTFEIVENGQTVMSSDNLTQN

[2] = molecular target: T2, sucrose phosphorylase (LmSPase) (Leuconostoc mesenteroides, UniProt Q59495, F52A)
T2 sequence (Q59495 1-490 F52A): T1 sequence (Q59495 1-490 F52A/E237A)

[3] = molecular target: T3, sucrose phosphorylase (LmSPase) (Leuconostoc mesenteroides, UniProt Q59495, F52A/D196A)
T3 sequence (Q59495 1-490 F52A/D196A): T1 sequence (Q59495 1-490 F52A/E237A)

[4] = molecular target: T4, sucrose phosphorylase (LmSPase) (Leuconostoc mesenteroides, UniProt Q59495, F52A/D295A)
T4 sequence (Q59495 1-490 F52A/D295A): T1 sequence (Q59495 1-490 F52A/E237A)

[5] = molecular target: T5, sucrose phosphorylase (LmSPase) (Leuconostoc mesenteroides, UniProt Q59495)
T5 sequence (Q59495 1-490): T1 sequence (Q59495 1-490 F52A/E237A)

## O=P(O)(O)O[C@H]1O[C@H](CO)[C@@H](O)[C@H](O)[C@H]1O [αGlc 1-P, α-D-glucose 1-phosphate]
[1]
  saturation transfer difference (STD) NMR: suggesting that binding of αGlc 1-P did take place in each double mutant
[2]
  saturation transfer difference (STD) NMR: STD effects in αGlc 1-P were considerably weaker in F52A mutant than in wild-type enzyme
[3]
  saturation transfer difference (STD) NMR: Incubation of either double mutant with αGlc 1-P gave rise to distinct STD effects in the ligand
[4]
  saturation transfer difference (STD) NMR; steady-state kinetics: STD signal intensities were higher on binding of αGlc 1-P to F52A_D295A mutant as compared to wild-type
[5]
  saturation transfer difference (STD) NMR, 7 μM enzyme, 5.0 mM ligand: Binding of αGlc 1-P to LmSPase resulted in a characteristic pattern of STD effects
